Experimental data: patent publication US20200246241A1, “COSMETIC COMPOSITION FOR BLOCKING FINE DUST” (LG HOUSEHOLD & HEALTH CARE LTD., priority 2017, published 2020)
“Also recorded” adds a separate entry of the source.

Test: Estimation of fine dust attachment on PMMA plate coated with artificial sebum
Conditions: compared to control group or other compounds
Procedure: 1) Method for Estimating Fine Dust Attachment
i) After applying artificial sebum of 1.3 mg/cm^2 on a PMMA plate, it was dried for 15 minutes.
ii) After applying a test formulation on the dried artificial sebum in the same amount, it was dried for 15 minutes (Noting was applied on the control group).
iii) The PMMA plate was attached on the internal top of the self-made chamber, and a pan on the bottom of the chamber was operated for 5 minutes, to expose 0.5 g substitutive fine dusts (brand name LM-YG0510, comprising strontium carbonate, alumina, europium oxide, and dysprosium oxide).
iv) Using a magnifying glass (Aphrodite-3, 50×), UV images were photographed (measuring 4 points per plate).
v) Using ImagePro Plus, the area of dust attachment was measured.
vi) The fine dust attachment rate was calculated by comparing the sample with the result of 3 times of experiments (Setting the fine dust attachment rate of the control group to 100).

Compound | effect of preventing fine dust attachment (in words)
CCCCC(CC)COC(=O)c1ccc(Nc2nc(Nc3ccc(C(=O)NC(C)(C)C)cc3)nc(Nc3ccc(C(=O)OCC(CC)CCCC)cc3)n2)cc1 (stereo not drawn) [Diethylhexyl butamido triazone] | excellent effect of preventing fine dust attachment; also recorded: excellent effect of reducing fine dust attachment
CC(C)(C)CC(C)(C)c1cc(Cc2cc(C(C)(C)CC(C)(C)C)cc(-n3nc4ccccc4n3)c2O)c(O)c(-n2nc3ccccc3n2)c1 [Methylene Bis-Benzotriazolyl tetramethyl butylphenol] | excellent effect of preventing fine dust attachment; also recorded: excellent effect of reducing fine dust attachment
O=S(=O)([O-])c1cc(S(=O)(=O)O)cc2[nH]c(-c3ccc(-c4nc5c(S(=O)(=O)[O-])cc(S(=O)(=O)O)cc5[nH]4)cc3)nc12.[Na+].[Na+] [disodium phenyl dibenzimidazole tetrasulfonate] | excellent effect of preventing fine dust attachment; also recorded: excellent effect of reducing fine dust attachment
CCCCC(CC)COC(=O)c1ccc(Nc2nc(Nc3ccc(C(=O)OCC(CC)CCCC)cc3)nc(Nc3ccc(C(=O)OCC(CC)CCCC)cc3)n2)cc1 (stereo not drawn) [ethylhexyl triazone] | excellent effect of preventing fine dust attachment; also recorded: excellent effect of reducing fine dust attachment
Nc1nc(N)nc(N)n1 [melamine, 1,3,5-triazine-2,4,6-triamine] | excellent effect of preventing fine dust attachment
trisbiphenyl triazine | excellent effect of preventing fine dust attachment; also recorded: excellent effect of reducing fine dust attachment
